Where a SMILES comes first, the peptide text is derived from it.
Tests used:
[1] = target: T1, PrrC anticodon nuclease (ACNase), His6-tagged D222E mutant (Escherichia coli, UniProt P17223, D222E); assay: ACNase assay: inhibition of PrrC-catalyzed cleavage of tRNA^Lys or ASL analogs; format: biochemical
T1 sequence (P17223 1-396 D222E): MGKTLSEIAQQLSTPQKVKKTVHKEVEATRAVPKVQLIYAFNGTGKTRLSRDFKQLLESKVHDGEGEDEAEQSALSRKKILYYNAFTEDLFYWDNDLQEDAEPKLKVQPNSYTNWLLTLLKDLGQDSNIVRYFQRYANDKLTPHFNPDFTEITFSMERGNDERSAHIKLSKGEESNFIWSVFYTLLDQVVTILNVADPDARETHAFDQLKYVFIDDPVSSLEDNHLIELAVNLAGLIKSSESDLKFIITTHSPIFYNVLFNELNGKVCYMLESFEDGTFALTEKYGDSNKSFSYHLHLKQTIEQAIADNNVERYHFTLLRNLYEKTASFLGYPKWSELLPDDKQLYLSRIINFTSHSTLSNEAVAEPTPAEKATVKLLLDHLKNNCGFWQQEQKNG

PrrC = settings: stated in the introduction; cited from earlier work

`CC(=O)N[C@@H](CCCCN)C(=O)N[C@@H](Cc1ccc(O)cc1)C(=O)NCC(=O)N[C@@H](CC(=O)O)C(=O)N[C@@H](CO)C(=O)N[C@@H](CC(N)=O)C(=O)N[C@@H](CCCCN)C(=O)N[C@@H](CO)C(=O)N[C@@H](Cc1ccccc1)C(=O)N[C@@H](CO)C(=O)N[C@@H](Cc1ccc(O)cc1)C(N)=O` [LARP, Ac-KYGDSNKSFSY-NH2] (Ac-KYGDSNKSFSY-NH2) showed an IC50 [1] of roughly 100 µM.

In the case of `Nc1nc2c(ncn2[C@@H]2O[C@H](COP(=O)(O)OP(=O)(O)OP(=O)(O)O)[C@@H](O)[C@H]2O)c(=O)[nH]1` [GTP], the “Affinity for PrrC (range)” value (PrrC) is given as “mM-range”.

For `Nc1ncnc2c1ncn2[C@@H]1O[C@H](COP(=O)(O)OP(=O)(O)OP(=O)(O)O)[C@@H](O)[C@H]1O` [ATP], the “Affinity for PrrC (range)” value (PrrC) is given as “mM-range”.

Reference: article PMC1950546 (Nucleic Acids Research, 2007)
